Experimental findings from ChEMBL document CHEMBL5678795 (Eur J Pharmacol, 1999) are described below.

Broadly, the Ki is a dissociation constant, usually derived from enzyme kinetics or from competition with a known ligand. For orientation: EC50 means the concentration that produces a half-maximal response.

Peptide text beside a SMILES is read from it.

For test [1], the target named is T1, Endothelin receptor type B (Homo sapiens, UniProt P24530).
T1 sequence (P24530 whole entry): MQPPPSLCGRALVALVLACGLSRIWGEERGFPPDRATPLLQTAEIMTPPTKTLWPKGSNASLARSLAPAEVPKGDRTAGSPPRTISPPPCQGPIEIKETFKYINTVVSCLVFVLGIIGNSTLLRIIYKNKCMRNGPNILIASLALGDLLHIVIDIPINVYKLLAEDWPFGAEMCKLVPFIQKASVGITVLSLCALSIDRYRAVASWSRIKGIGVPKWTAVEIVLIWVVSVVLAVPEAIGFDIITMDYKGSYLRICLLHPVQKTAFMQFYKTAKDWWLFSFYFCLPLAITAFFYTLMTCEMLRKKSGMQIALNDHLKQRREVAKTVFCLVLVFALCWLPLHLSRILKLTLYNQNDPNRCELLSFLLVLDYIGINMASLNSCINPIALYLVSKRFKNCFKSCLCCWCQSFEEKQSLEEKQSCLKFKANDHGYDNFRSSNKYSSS
The experiment in a line: Binding affinity to ETB receptor (unknown origin) assessed as inhibition constant.

Test [2] is described as follows: Selectivity ratio of IC50 for human ETA receptor stably expressed in CHO cells Membrane to IC50 human ETB receptor stably expressed in CHO cells Membrane. As to conditions: condition cardiovascular disease; condition vascular disease.
In test [3] the target is T2, Endothelin-1 receptor (Homo sapiens, UniProt P25101).
T2 sequence (P25101 whole entry): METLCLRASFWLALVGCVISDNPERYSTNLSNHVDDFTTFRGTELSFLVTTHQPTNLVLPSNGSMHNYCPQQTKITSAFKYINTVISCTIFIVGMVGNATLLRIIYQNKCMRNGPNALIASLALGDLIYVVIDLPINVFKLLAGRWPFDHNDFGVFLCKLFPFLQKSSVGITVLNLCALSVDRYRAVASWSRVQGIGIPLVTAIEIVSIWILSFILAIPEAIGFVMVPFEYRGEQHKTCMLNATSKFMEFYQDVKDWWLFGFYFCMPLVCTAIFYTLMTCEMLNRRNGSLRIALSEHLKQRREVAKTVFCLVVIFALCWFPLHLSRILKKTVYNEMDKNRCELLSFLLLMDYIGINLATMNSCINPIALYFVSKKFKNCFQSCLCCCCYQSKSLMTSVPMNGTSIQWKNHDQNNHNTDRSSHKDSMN
Briefly: Binding affinity to ETA receptor (unknown origin) assessed as inhibition constant.

The target in test [4] is T2, Endothelin-1 receptor. The experiment in a line: Displacement of [125I]endhothelin-1 from human ETA receptor stably expressed in CHO cells Membrane assessed as inhibition constant at 25 degC incubated for 4 hrs by saturation binding assay. The class given is cell membranes.
In test [5] the target is T1, Endothelin receptor type B. The experiment in a line: Displacement of [125I]endhothelin-3 from human ETB receptor stably expressed in CHO cells Membrane assessed as inhibition constant at 25 degC incubated for 4 hrs by saturation binding assay. The class given is cell membranes. (In a radioligand displacement assay an active substance lowers the binding of a labelled ligand.)

Test [6] can be described thus: Displacement of [125I]ET-1 from human ETB receptor expressed in green monkey COS7 cells Membrane assessed as inhibition constant incubated for 16 to 18 hrs by gamma counter analysis. The class given is cell membranes.
Test [7] concerns the target Endothelin receptor type B (Oryctolagus cuniculus, UniProt Q9N0W7). The experiment in a line: Agonist activity to ETB receptor in rabbit pulmonary artery assessed as induction of vessel ring contraction. The class given is functional, tissue-based.

Chain of Endothelin receptor type B (Oryctolagus cuniculus, UniProt Q9N0W7) (Q9N0W7 whole entry): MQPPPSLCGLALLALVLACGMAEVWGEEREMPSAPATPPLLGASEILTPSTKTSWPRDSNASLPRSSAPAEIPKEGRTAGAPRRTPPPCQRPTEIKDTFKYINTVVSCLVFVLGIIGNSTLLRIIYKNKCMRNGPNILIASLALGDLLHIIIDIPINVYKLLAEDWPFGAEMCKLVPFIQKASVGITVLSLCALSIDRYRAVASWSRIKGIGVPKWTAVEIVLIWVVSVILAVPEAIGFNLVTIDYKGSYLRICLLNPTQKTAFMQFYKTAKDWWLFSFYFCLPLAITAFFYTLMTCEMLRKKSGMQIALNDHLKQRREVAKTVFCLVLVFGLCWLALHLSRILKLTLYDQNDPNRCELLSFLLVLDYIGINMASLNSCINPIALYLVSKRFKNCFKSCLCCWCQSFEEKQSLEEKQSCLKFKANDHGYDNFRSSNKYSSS

For the molecule `CC(C)C[C@H](NC(=O)N1CCCCCC1)C(=O)N[C@H](Cc1cn(C)c2ccccc12)C(=O)N[C@H](Cc1ccccn1)C(=O)O`, the Ki in test [1] came to 7300 nM. `CCCOc1ccc2c(c1)[C@@H](c1ccc(OC)cc1OCCO)[C@H](C(=O)O)[C@H]2c1ccc2c(c1)OCO2`: in test [2], the “Ratio IC50” value is listed as 1000. Still for that read-out and setting: as for `CC(C)C[C@@H]1NC(=O)[C@@H](c2cccs2)NC(=O)[C@H](CC(=O)O)NC(=O)[C@H](CC(=O)N2CCN(c3ccccc3)CC2)NC(=O)[C@@H](CC(=O)O)NC(=O)[C@@H](Cc2c[nH]c3ccccc23)NC1=O` (HELM PEPTIDE1{D.D.[O=C([C@H](N[*:1])c1cccs1)[*:2]].L.[dW].[dD]}|CHEM1{[c1ccc(N2CCN([*:1])CC2)cc1]}$PEPTIDE1,CHEM1,1:R3-1:R1|PEPTIDE1,PEPTIDE1,1:R1-6:R2$$$V2.0) [listing 1 of 2 here], the figure is 454. Regarding `CC(C)C[C@@H]1NC(=O)[C@@H](c2cccs2)NC(=O)[C@H](CC(=O)O)NC(=O)[C@H](CC(=O)N2CCN(c3ccccc3)CC2)NC(=O)[C@@H](CC(=O)O)NC(=O)[C@@H](Cc2c[nH]c3ccccc23)NC1=O` (HELM PEPTIDE1{D.D.[O=C([C@H](N[*:1])c1cccs1)[*:2]].L.[dW].[dD]}|CHEM1{[c1ccc(N2CCN([*:1])CC2)cc1]}$PEPTIDE1,CHEM1,1:R3-1:R1|PEPTIDE1,PEPTIDE1,1:R1-6:R2$$$V2.0) [listing 2 of 2 here], the results for the Ki in test [3] and in test [1] were 1.3 nM and 590 nM, respectively. For `COc1ccccc1Oc1c(NS(=O)(=O)c2ccc(C)cn2)nc(-c2ccnc(-c3nnn[nH]3)c2)nc1OCCO` [CLAZOSENTAN], the “Ratio IC50” value in test [2] is greater than 1000. In test [1], the inhibitory constant (Ki) was greater than 130 nM.

On to `CCCOc1ccc2c(c1)[C@@H](c1ccc(OC)cc1OCC(=O)O)[C@H](C(=O)O)[C@H]2c1ccc2c(c1)OCO2` [SB-209670], for which, in test [2], the “Ratio IC50” value came out at 90. As for `COc1cc(OC)nc(O[C@@H](C(=O)O)C(OC)(c2ccccc2)c2ccccc2)n1`, the “Ratio IC50” value in test [2] is 160. The Ki in test [3] is 6 nM; in test [1], 960 nM. Take `CCCc1cc(C(=O)O)ccc1OC(C(=O)NS(=O)(=O)c1ccc(C(C)C)cc1)c1ccc2c(c1)OCO2` [L-754142]: the Ki came to 33.6 nM in test [4] and 1420 nM in test [5]. In addition, in test [2], the “Ratio IC50” value came out at 42. `Cc1cc2c(cc1CC(=O)c1sccc1S(=O)(=O)Nc1onc(C)c1Cl)OCO2` [SITAXENTAN]: the “Ratio IC50” value in test [2] is reported as greater than 10000. In test [6], the Ki was greater than 4300 nM. With `CC[C@H](C)[C@H](NC(=O)[C@@H](NC(=O)[C@H](CC(=O)O)NC(=O)[C@H](CCC(N)=O)NC(=O)[C@H](Cc1cnc[nH]1)NC(=O)[C@@H]1CSSC[C@H](N)C(=O)N[C@@H]([C@@H](C)O)C(=O)N[C@H]2CSSC[C@H](NC(=O)[C@H](CCC(=O)O)NC(=O)[C@H](CCC(=O)O)NC(=O)[C@H](CC(=O)O)NC(=O)[C@H]([C@@H](C)O)NC(=O)[C@H](CCSC)NC(=O)[C@H](CC(=O)O)NC(=O)[C@H](CC(N)=O)NC2=O)C(=O)N[C@@H](CC(C)C)C(=O)N[C@@H](CC(N)=O)C(=O)N[C@@H](Cc2ccccc2)C(=O)N1)C(C)C)C(=O)N[C@@H](Cc1c[nH]c2ccccc12)C(=O)O`, in test [7], the EC50 turned out to be 1.57 nM.
